Source: US7906709B2, “Methods for breeding glyphosate resistant plants and compositions thereof” (priority 2006, dated 2011)

How the values were obtained:
[1] = tested on: backcrossed turfgrass samples; test: Glyphosate resistance phenotype of backcrossed turfgrass samples; format: in vivo
Excerpt: In some embodiments, the germplasm can have more than one glyphosate resistant allele. At least one of the glyphosate resistant alleles is the single nucleotide polymorphism (“SNP”) for the EPSPS gene at nt301 of SEQ. ID. NO. 1. By sequencing of the EPSPS from sensitive and resistant ryegrass biotypes the SNP was identified. A change from cytosine to thymine at this position changes the amino acid from proline to serine. The SNP at nt301 of SEQ. ID. NO. 1 can be used as a marker to identify plants that carry the allele of the resistant form of EPSPS. As shown in Table 1 and highlighted in the Examples below, a second allele can contribute to the glyphosate resistance.
Having both the first allele (the SNP) and the second allele in a plant such as, for example, a turf grass, can increase resistance to glyphosate. In some embodiments, the second allele may be attributed to glyphosate oxidoreductase (“GOX”) enzyme encoded by a GOX gene. Only one of the alleles may be needed to produce a glyphosate resistant plant such as for example, a turfgrass. In some embodiments, the second allele can be identified as the Gly-Rest 2 gene. The Gly-Rest 2 gene encodes a glyphosate resistant protein that can be identified as the Gly-Resist Protein (“GRP”) which is different from the glyphosate resistant EPSPS. To identify which plants have only the GRP protein, the following is an example of an analysis that can be useful. The plants that have been crossed with a known glyphosate resistant parent are grown. A herbicidally effective amount of glyphosate is applied to the plants. The plants that survive the application are selected and a part of the plant is then used to determine if a biomarker for glyphosate resistant EPSPS is present. An example of such an analysis is discussed in the examples below. If the biomarker is present, then the plant has at least glyphosate resistant EPSPS and may have GRP. […] A biomarker analysis for GRP can be designed and designing such an analysis is well within the knowledge of those skilled in the art.

[2] = tested on: S biotype of the California rigid ryegrass; test: Glyphosate drops on leaves, susceptible biotype; format: in vivo, Lolium rigidum; details: three 2 µl drops on two leaves, corresponds to 1.12 kg ai ha^-1; one week after treatment; ROUNDUP ULTRA (isopropylamine salt)
Procedure: Rigid ryegrass (Lolium rigidum Gaud.) plants are collected from an almond orchard intensively treated with glyphosate since 1984. The collected plants are grown and seed produced in greenhouse. The resistant, intermediate and susceptible biotypes are selected in the first generation using 1.12, 2.24, and 3.36 kg ai ha^−1 rates of glyphosate. Further selection is continued with a high glyphosate rate (8.96 kg ai ha^−1) to select for the resistant and with the low rate (0.28 kg ai ha^−1) to select for the susceptible individuals. The resistant (R) and susceptible (S) biotypes used in this example are generated from the 5th and 4th cycle, respectively.
R and S biotypes of the California rigid ryegrass are grown individually to the fully vegetatively mature stage prior to seedhead formation. In one experiment, two fully mature leaves of each plant (one R and one S biotypes) are treated with three 2 μl drops of glyphosate (glyphosate isopropylamine salt, ROUNDUP ULTRA™, Monsanto Co., St. Louis, Mo.) solution applied to the upper leaf surface. This corresponds to a field rate of 1.12 kg ai ha^−1 glyphosate at a volume of 187 L ha^−1 and pressure of 172.5 kPa. One week after treatment, the S biotype is dead, but no injury is observed on the R biotype.

Wild-type Agrobacterium = test: Growth in M-9 media with glyphosate, wild-type; format: cell-based, Agrobacterium tumefaciens; details: 48 hours
Procedure: (§1) The confirmed plasmid is transformed into Agrobacterium tumefaciens by “freeze thaw technique” using liquid nitrogen. The transformed Agrobacterium is grown in LB plated and maintained 28° C. for 72 h. Some colonies are grown in LB broth for 24 h and tested for the inserted EPSPS gene by PCR. The confirmed Agrobacterium is grown in 50 mL LB broth for 24 h. The Agrobacterium is centrifuged at 5000×g for 10 min, and the pellets are diluted with 2 mL 1.0 M CaCl2. At the same time, a wild-type Agrobacterium is also grown and extracted similar to the transformed Agrobacterium. The Agrobacterium solutions (10 μL) are grown in 50 mL media containing 1×M-9 salt media (SIGMA), 20 mM glucose, 2 mM MgSO4, and glyphosate at 0, 0.25, 0.5, 0.75, 1.0, 1.5, and 2 mM.
(§2) The growth (indicated by Optical Density 600 nm) is measured after 48 hours.

[3] = tested on: Transformed Agrobacterium (glyphosate-resistant rigid ryegrass EPSPS); test: Growth in M-9 media with glyphosate, transformed with resistant EPSPS; format: cell-based, Agrobacterium tumefaciens; details: 48 hours
Procedure: The level of glyphosate resistance is assayed from resistant rigid ryegrass EPSPS-expressing Agrobacterium that are transformed with a DNA construct encoding the resistant EPSPS enzyme (SEQ. ID. NO. 16).
An EPSPS gene (SEQ. ID. NO. 15) is obtained from glyphosate resistant rigid ryegrass. The EPSPS gene is ligated with the binary vector pFGC5941, a 11406 bp construct with kanamycin resistant gene, BAR gene as a selectable marker, and 35S Promoter. The ligation is cloned in pGEM vector and grown in LB broth. The plasmid from cloned pGEM is confirmed for the inserted EPSPS gene by PCR.
as §1, §2

Q: What does the source list for O=C(O)CNCP(=O)(O)O [glyphosate, N-(phosphonomethyl) glycine]?
A: Phenotype (Dead) ([1]; sample 1 S control, SNP No): 1X; Phenotype (Dead) ([1]; sample 2 R control, SNP Yes): 8X; Phenotype (Dead) ([1]; sample 3, SNP No): 2X; Phenotype (Dead) ([1]; sample 4, SNP Yes): 2X; Phenotype (Dead) ([1]; sample 5, SNP Yes): 8X; Phenotype (Dead) ([1]; sample 6, SNP No): 1X; Phenotype (Dead) ([1]; sample 7, SNP No): 4X; Phenotype (Dead) ([1]; sample 8, SNP No): 1X; Phenotype (Dead) ([1]; sample 9, SNP Yes): 4X; Phenotype (Dead) ([1]; sample 10, SNP No): 4X; Phenotype (Dead) ([1]; sample 11, SNP Yes): 4X; Phenotype (Dead) ([1]; sample 12, SNP Yes): 4X; Phenotype (Dead) ([1]; sample 13, SNP No): 1X; Phenotype (Dead) ([1]; sample 14, SNP No): 2X; Phenotype (Dead) ([1]; sample 15, SNP Yes): 4X; Phenotype (Dead) ([1]; sample 16, SNP Yes): 4X; Phenotype (Dead) ([1]; sample 17, SNP Yes): 6X; Phenotype (Dead) ([1]; sample 18, SNP Yes): 2X; Phenotype (Dead) ([1]; sample 19, SNP No): 4X; Phenotype (Dead) ([1]; sample 20, SNP No): 4X; Phenotype (Dead) ([1]; sample 21, SNP No): 4X; Phenotype (Dead) ([1]; sample 22 S control, SNP No): 1X; Phenotype (Dead) ([1]; sample 23 R control, SNP Yes): 8X; Plant injury [2]: dead; Growth, OD 600 nm (Wild-type Agrobacterium; glyphosate 0.25 mM): 0.236; Growth, Percent (Wild-type Agrobacterium; glyphosate 0.25 mM): 37%; Growth, OD 600 nm (Wild-type Agrobacterium; glyphosate 0.50 mM): 0.005; Growth, Percent (Wild-type Agrobacterium; glyphosate 0.50 mM): 0.8%; Growth, OD 600 nm (Wild-type Agrobacterium; glyphosate 0.75 mM): 0.005; Growth, Percent (Wild-type Agrobacterium; glyphosate 0.75 mM): 0.8%; Growth, OD 600 nm (Wild-type Agrobacterium; glyphosate 1.00 mM): 0.004; Growth, Percent (Wild-type Agrobacterium; glyphosate 1.00 mM): 0.8%; Growth, OD 600 nm (Wild-type Agrobacterium; glyphosate 1.50 mM): 0.004; Growth, Percent (Wild-type Agrobacterium; glyphosate 1.50 mM): 0.8%; Growth, OD 600 nm (Wild-type Agrobacterium; glyphosate 2.00 mM): 0.004; Growth, Percent (Wild-type Agrobacterium; glyphosate 2.00 mM): 0.8%; Growth, OD 600 nm ([3]; glyphosate 0.25 mM): 0.632; Growth, Percent ([3]; glyphosate 0.25 mM): 98%; Growth, OD 600 nm ([3]; glyphosate 0.50 mM): 0.185; Growth, Percent ([3]; glyphosate 0.50 mM): 29%; Growth, OD 600 nm ([3]; glyphosate 0.75 mM): 0.097; Growth, Percent ([3]; glyphosate 0.75 mM): 15%; Growth, OD 600 nm ([3]; glyphosate 1.00 mM): 0.025; Growth, Percent ([3]; glyphosate 1.00 mM): 4%; Growth, OD 600 nm ([3]; glyphosate 1.50 mM): 0.024; Growth, Percent ([3]; glyphosate 1.50 mM): 4%; Growth, OD 600 nm ([3]; glyphosate 2.00 mM): 0.02; Growth, Percent ([3]; glyphosate 2.00 mM): 3%
